Numbers after ± are expanded uncertainties.
Assays:
[1] = 298.15 K, 101.33 kPa, Liquid
[2] = refractive index (Na D-line) (dimensionless); conditions: 298.15 K; 101.33 kPa; Liquid; Standard Abbe refractometry

mass density ([1]; Vibrating tube method) [kg/m3] | refractive index [2] | electrical conductivity [1] [S/m] | Compound
1052.23 ± 1.2 | 1.4713 ± 0.0008 |  | CN1CCN(C)C1=O [1,3-dimethyl-2-imidazolidinone]
 |  | 1.3e-05 ± 1e-06 | O [water]
